Structures can show the parent of a compound that is named as a salt. Where two headings read alike, the source gives them in different places.
How the values were obtained:
[1] = test system: Bacteroides thetaiotaomicon; assay: MIC vs. anaerobic bacteria, agar dilution; type: cell-based; conditions: UC6512, UC 6512, read-out: Minimal Inhibitory Concentration (MIC)
[2] = Acute I.P. toxicity in the mouse (LD50); type: in vivo
Description: This value is the resulting mean of two separate and identical LD50 determinations.

[3] = test system: Fusobacterium nucleatum; assay: MIC vs. anaerobic bacteria, agar dilution; type: cell-based
[4] = test system: Fusobacterium varium; assay: MIC vs. anaerobic bacteria, agar dilution; type: cell-based; conditions: UC6052, UC 6052, read-out: Minimal Inhibitory Concentration (MIC)
[5] = test system: Bacteroides distasonis; assay: MIC vs. anaerobic bacteria, agar dilution; type: cell-based; conditions: Parabacteroides distasonis, UC6518, UC 6518, read-out: Minimal Inhibitory Concentration (MIC)
[6] = test system: Fusobacterium necrophorum; assay: MIC vs. anaerobic bacteria, agar dilution; type: cell-based; conditions: UC6568, UC 6568, read-out: Minimal Inhibitory Concentration (MIC)
[7] = test system: K. pneumoniae; assay: Mouse Protection Test; type: in vivo; conditions: Klebsiella pneumoniae, 168 h; route not given; once per day for 4 days; read-out: CD50 (median protective dose)
Description: (§1) Immediately before use, the suspensions were thawed quickly and properly diluted. Infection was via the intrapertioneal route.
(§2) Treatment of the infected groups was begun immediately and continued once per day for 4 days (first 24 hr period=1). Groups of untreated mice served as virulence controls for the culture.
(§3) Seven days after the treatment regimen was begun the surviving animals were sacrificed and the median protective dose of the antibiotic calculated on the basis of mortality rates in the treatment groups. The median protective dose and its 95% confidence interval were calculated according to the method of Spearmen & Karber as programmed on a 360 digital computer.

[8] = test system: S. aureus; assay: Mouse Protection Test; type: in vivo; conditions: Staphylococcus aureus
Description: as §1, §2, §3

[9] = test system: S. hemolyticus; assay: Mouse Protection Test; type: in vivo; conditions: for ED50: 168 h
Description: as §1, §2, §3

[10] = test system: Clostridium bifermentans; assay: MIC vs. anaerobic bacteria, agar dilution; type: cell-based; conditions: Paraclostridium bifermentans, UC6507, UC 6507, read-out: Minimal Inhibitory Concentration (MIC)
[11] = test system: Diplococcus pneumoniae; assay: MIC vs. aerobic bacteria, microplate broth-dilution (BHI); type: cell-based; conditions: Streptococcus pneumoniae, read-out: Minimal Inhibitory Concentration (MIC)
Method: (§4) The Minimal Inhibitory Concentration (MIC's) of both compounds Vs. aerobic bacteria is determined using a standard microplate broth-dilution method. Brain Heart Infusion (BHI-Difco) broth medium is used, and the plates are incubated at 37° C. for 20 hrs.

[12] = test system: Klebsiella pneumoniae; assay: as above; type: cell-based; conditions: Klebsiella pneumoniae, UC58, UC 58; read-out: Minimal Inhibitory Concentration (MIC)
Method: as §4

[13] = test system: Streptococcus viridans; assay: as above; type: cell-based
Method: as §4

[14] = test system: Salmonella schottmuelleri; assay: as above; type: cell-based; conditions: Salmonella, UC126; UC 126; read-out: Minimal Inhibitory Concentration (MIC)
Method: as §4

[15] = test system: Staphylococcus epidermidis; assay: as above; type: cell-based
Method: as §4

[16] = test system: Escherichia coli; assay: as above; type: cell-based; conditions: UC45, UC 45, read-out: Minimal Inhibitory Concentration (MIC)
Method: as §4

[17] = test system: Pseudomonas aeruginosa; assay: as above; type: cell-based; conditions: UC95, UC 95, read-out: Minimal Inhibitory Concentration (MIC)
Method: as §4

[18] = test system: Streptococcus pyogenes; assay: as above; type: cell-based; conditions: UC152, UC 152, read-out: Minimal Inhibitory Concentration (MIC)
Method: as §4

[19] = test system: Proteus vulgaris; assay: as above; type: cell-based; conditions: Proteus vulgaris, UC93, UC 93; read-out: Minimal Inhibitory Concentration (MIC)
Method: as §4

[20] = test system: Streptococcus faecalis; assay: as above; type: cell-based; conditions: Enterococcus faecalis, UC694, UC 694; read-out: Minimal Inhibitory Concentration (MIC)
Method: as §4

[21] = test system: Peptococcus asaccharolyticus; assay: MIC vs. anaerobic bacteria, agar dilution; type: cell-based; conditions: Peptoniphilus asaccharolyticus, UC6214, UC 6214, read-out: Minimal Inhibitory Concentration (MIC)
[22] = test system: Clostridium botulinum A; assay: microbe, parasite or virus in culture; type: cell-based; conditions: UC6506, read-out: Minimal Inhibitory Concentration (MIC)
[23] = test system: Staphylococcus aureus; assay: MIC vs. aerobic bacteria, microplate broth-dilution (BHI); type: cell-based; conditions: Staphylococcus aureus, read-out: Minimal Inhibitory Concentration (MIC)
[24] = test system: Clostridium difficile; assay: MIC vs. anaerobic bacteria, agar dilution; type: cell-based; conditions: Clostridioides difficile
[25] = test system: Clostridium cadaveris; assay: MIC vs. anaerobic bacteria, agar dilution; type: cell-based; conditions: UC6510, UC 6510, read-out: Minimal Inhibitory Concentration (MIC)

Question: For CC[C@@H]1CCN[C@H](C(=O)N[C@@H]([C@H]2O[C@H](SC)[C@H](O)[C@@H](O)[C@H]2O)[C@H](C)Cl)C1 [U-57,930E, 4-Cis-ethyl-1-pipecolic acid amide of 7-Cl-MTL.HCl], which MIC [1] is on record?
Answer: The MIC was 0.5 µg/mL.

Question: What about the “LD50 as multiple of the LD50 for clindamycin HCl” value [2] of the same compound?
Answer: Its value is “approximately 2 times”.

Question: What about the “acute I.P. toxicity relative to clindamycin HCl” value [2] of the same compound?
Answer: Its value is “approximately one-half”.

Question: What about the LD50 ([2]; in vivo, ip, mean of two determinations) of the same compound?
Answer: Its LD50 is 592 mg/kg.

Question: What about the MIC ([3]; UC6324, UC 6324, read-out: Minimal Inhibitory Concentration (MIC)) of the same compound?
Answer: Its MIC is 0.06 µg/mL.

Question: What about the MIC ([3]; UC6516, UC 6516, read-out: Minimal Inhibitory Concentration (MIC)) of the same compound?
Answer: The MIC was 0.12 µg/mL.

Question: What about the MIC [4] of the same compound?
Answer: Its MIC is 3.9 µg/mL.

Question: What about the MIC [5] of the same compound?
Answer: Its MIC is ≤ 0.03 µg/mL.

Question: And the MIC [6]?
Answer: The MIC was 0.06 µg/mL.

Question: And the ED50 [7]?
Answer: The ED50 was > 320 mg/kg.

Question: And the ED50 ([8]; 168 h, oral, once per day for 4 days, 95% confidence interval, read-out: CD50 (median protective dose))?
Answer: The ED50 was 1 to 5 mg/kg.

Question: And the ED50 ([8]; UC76, 168 h, strain UC 76, oral, read-out: Median Protective Dose (CD50))?
Answer: Its ED50 is 8.12 mg/kg.

Question: What about the ED50 ([8]; UC76, sc, 168 h, strain UC 76, subcutaneous, read-out: Median Protective Dose (CD50)) of the same compound?
Answer: Its ED50 is 1.07 mg/kg.

Question: What about the ED50 ([8]; sc, 168 h, read-out: CD50 (median protective dose)) of the same compound?
Answer: Its ED50 is < 5 mg/kg.

Question: And the ED50 ([9]; oral, once per day for 4 days, 95% confidence interval, read-out: CD50 (median protective dose))?
Answer: The ED50 was 2.9 mg/kg.

Question: What about the ED50 ([9]; strain C203, oral, read-out: Median Protective Dose (CD50)) of the same compound?
Answer: The ED50 was 3.79 mg/kg.

Question: And the “Ratio (clindamycin / U-57930A CD50)” value ([9]; oral)?
Answer: Its value is 4.2.

Question: And the ED50 ([9]; sc, strain C203, subcutaneous, read-out: Median Protective Dose (CD50))?
Answer: Its ED50 is 0.38 mg/kg.

Question: And the ED50 ([9]; sc, subcut., once per day for 4 days, 95% confidence interval, two experiments listed, read-out: CD50 (median protective dose))?
Answer: The ED50 was 0.25 mg/kg.

Question: What about the MIC [10] of the same compound?
Answer: Its MIC is 0.06 µg/mL.

Question: What about the MIC ([11]; UC41, Diplococcus pneumoniae I, UC 41) of the same compound?
Answer: The MIC was ≤ 0.012 µg/mL.

Question: And the MIC ([11]; UC3213, Diplococcus pneumoniae II, UC 3213)?
Answer: The MIC was ≤ 0.012 µg/mL.

Question: And the MIC [12]?
Answer: The MIC was > 50 µg/mL.

Question: And the MIC ([13]; UC153, UC 153, read-out: Minimal Inhibitory Concentration (MIC))?
Answer: Its MIC is 0.05 µg/mL.

Question: What about the MIC ([13]; UC871, UC 871, read-out: Minimal Inhibitory Concentration (MIC)) of the same compound?
Answer: The MIC was ≤ 0.012 µg/mL.

Question: What about the MIC [14] of the same compound?
Answer: The MIC was > 50 µg/mL.

Question: What about the MIC ([15]; UC719, UC 719, read-out: Minimal Inhibitory Concentration (MIC)) of the same compound?
Answer: Its MIC is 0.2 µg/mL.

Question: What about the MIC ([15]; UC3389, UC 3389, read-out: Minimal Inhibitory Concentration (MIC)) of the same compound?
Answer: The MIC was 0.2 µg/mL.

Question: What about the MIC [16] of the same compound?
Answer: The MIC was > 50 µg/mL.

Question: And the MIC [17]?
Answer: Its MIC is > 50 µg/mL.

Question: And the MIC [18]?
Answer: Its MIC is ≤ 0.012 µg/mL.

Question: And the MIC [19]?
Answer: The MIC was > 50 µg/mL.

Question: And the MIC [20]?
Answer: The MIC was 6.25 µg/mL.

Question: What about the MIC [21] of the same compound?
Answer: The MIC was 0.25 µg/mL.

Question: What about the MIC [22] of the same compound?
Answer: Its MIC is ≤ 0.03 µg/mL.

Question: And the MIC ([23]; UC76, S. aureus UC 76)?
Answer: Its MIC is 0.1 µg/mL.

Question: And the MIC ([23]; UC570, S. aureus UC 570)?
Answer: Its MIC is 0.39 µg/mL.

Question: What about the MIC ([23]; UC571, S. aureus UC 571) of the same compound?
Answer: Its MIC is 0.78 µg/mL.

Question: And the MIC ([23]; UC746, S. aureus UC 746)?
Answer: The MIC was 0.05 µg/mL.

Question: What about the MIC ([23]; UC6675, S. aureus UC 6675) of the same compound?
Answer: Its MIC is 0.39 µg/mL.

Question: And the MIC ([23]; UC6685, S. aureus UC 6685)?
Answer: The MIC was > 25 µg/mL.

Question: And the MIC ([23]; UC6686, S. aureus UC 6686)?
Answer: Its MIC is 0.2 µg/mL.

Question: And the MIC ([23]; UC6687, S. aureus UC 6687)?
Answer: Its MIC is 0.2 µg/mL.

Question: And the MIC ([23]; UC6688, S. aureus UC 6688)?
Answer: Its MIC is > 25 µg/mL.

Question: What about the MIC ([23]; UC6689, S. aureus UC 6689) of the same compound?
Answer: Its MIC is 0.78 µg/mL.

Question: And the MIC ([23]; UC6690, S. aureus UC 6690)?
Answer: The MIC was 0.2 µg/mL.

Question: What about the MIC ([23]; UC6691, S. aureus UC 6691) of the same compound?
Answer: Its MIC is 0.2 µg/mL.

Question: What about the MIC ([23]; UC6692, S. aureus UC 6692) of the same compound?
Answer: The MIC was > 25 µg/mL.

Question: And the MIC ([23]; UC6693, S. aureus UC 6693)?
Answer: The MIC was 0.78 µg/mL.

Question: What about the MIC ([23]; UC6694, S. aureus UC 6694) of the same compound?
Answer: The MIC was > 25 µg/mL.

Question: What about the MIC ([23]; UC6695, S. aureus UC 6695) of the same compound?
Answer: Its MIC is 0.39 µg/mL.

Question: And the MIC ([23]; UC6696, S. aureus UC 6696)?
Answer: The MIC was 0.39 µg/mL.

Question: What about the MIC ([24]; UC6834, UC 6834, read-out: Minimal Inhibitory Concentration (MIC)) of the same compound?
Answer: Its MIC is 3.9 µg/mL.

Question: And the MIC ([24]; UC6857, UC 6857, read-out: Minimal Inhibitory Concentration (MIC))?
Answer: Its MIC is 125 µg/mL.

Question: What about the MIC ([24]; UC6858, UC 6858, read-out: Minimal Inhibitory Concentration (MIC)) of the same compound?
Answer: The MIC was 3.9 µg/mL.

Question: And the MIC ([24]; UC6860, UC 6860, read-out: Minimal Inhibitory Concentration (MIC))?
Answer: Its MIC is 500 µg/mL.

Question: What about the MIC ([24]; UC6861, UC 6861, read-out: Minimal Inhibitory Concentration (MIC)) of the same compound?
Answer: Its MIC is 2 µg/mL.

Question: What about the MIC [25] of the same compound?
Answer: Its MIC is 0.06 µg/mL.

— US4310660A, “Lincomycin compounds” (The Upjohn Company, priority 1980, dated 1982)
